US8183262B2, “Pyridine derivatives as mGluR2 antagonists” (Hoffmann-La Roche Inc., priority 2007, dated 2012)

| melting point [°C] | SMILES |
| --- | --- |
| 234 | O=S(=O)(c1cccc(-c2cc(-c3nc(-c4ccc(C(F)(F)F)cc4)cc(C(F)(F)F)n3)ccn2)c1)N1CCC(O)C1 (racemic) [Example 407, (RS)-1-(3-{4-[4-Trifluoromethyl-6-(4-trifluoromethyl-phenyl)-pyrimidin-2-yl]-pyridin-2-yl}-benzenesulfonyl)-pyrrolidin-3-ol] |
| 120.5 | FC(F)(F)c1ccc(-c2cc(C(F)(F)F)nc(-n3cccc3)n2)cc1 [Example 4, 2-Pyrrol-1-yl-4-trifluoromethyl-6-(4-trifluoromethyl-phenyl)-pyrimidine] |
| 128.5 | FC(F)(F)c1cc(-c2ccc(Cl)cc2)nc(-n2cccc2)n1 [Example 6, 4-(4-Chloro-phenyl)-2-pyrrol-1-yl-6-trifluoromethyl-pyrimidine] |
| 228 | FC(F)(F)c1cc(-c2ccc(Cl)cc2)nc(-n2cnc(-c3cccnc3)c2)n1 [Example 7, 4-(4-Chloro-phenyl)-2-(4-pyridin-3-yl-imidazol-1-yl)-6-trifluoromethyl-pyrimidine] |
| 211 | Nc1ccc(-c2noc(-c3nc(-c4ccc(Cl)cc4)cc(C(F)(F)F)n3)n2)cn1 [Example 9, 5-{5-[4-(4-Chloro-phenyl)-6-trifluoromethyl-pyrimidin-2-yl]-[1,2,4]oxadiazol-3-yl}-pyridin-2-ylamine] |
| 223.5 | Nc1cc(-c2noc(-c3nc(-c4ccc(C(F)(F)F)cc4)cc(C(F)(F)F)n3)n2)ccn1 [Example 12, 4-{5-[4-Trifluoromethyl-6-(4-trifluoromethyl-phenyl)-pyrimidin-2-yl]-[1,2,4]oxadiazol-3-yl}-pyridin-2-ylamine] |
| 286 | Nc1ccc(-c2cn(-c3nc(-c4ccc(C(F)(F)F)cc4)cc(C(F)(F)F)n3)cn2)cn1 [Example 13, 5-{1-[4-Trifluoromethyl-6-(4-trifluoromethyl-phenyl)-pyrimidin-2-yl]-1H-imidazol-4-yl}-pyridin-2-ylamine] |
| 254 | Nc1ccc(-c2cn(-c3nc(-c4ccc(Cl)cc4)cc(C(F)(F)F)n3)cn2)cn1 [Example 14, 5-{1-[4-(4-Chloro-phenyl)-6-trifluoromethyl-pyrimidin-2-yl]-1H-imidazol-4-yl}-pyridin-2-ylamine] |
| 302 | NS(=O)(=O)c1ccc(-c2noc(-c3nc(-c4ccc(C(F)(F)F)cc4)cc(C(F)(F)F)n3)n2)cc1 [Example 15, 4-{5-[4-Trifluoromethyl-6-(4-trifluoromethyl-phenyl)-pyrimidin-2-yl]-[1,2,4]oxadiazol-3-yl}-benzenesulfonamide] |
| 204 | NS(=O)(=O)c1cccc(-c2noc(-c3nc(-c4ccc(C(F)(F)F)cc4)cc(C(F)(F)F)n3)n2)c1 [Example 16, 3-{5-[4-Trifluoromethyl-6-(4-trifluoromethyl-phenyl)-pyrimidin-2-yl]-[1,2,4]oxadiazol-3-yl}-benzenesulfonamide] |
| 289.5 | NS(=O)(=O)c1ccc(-c2noc(-c3nc(-c4ccc(Cl)cc4)cc(C(F)(F)F)n3)n2)cc1 [Example 17, 4-{5-[4-(4-Chloro-phenyl)-6-trifluoromethyl-pyrimidin-2-yl]-[1,2,4}oxadiazol-3-yl]-benzenesulfonamide] |
| 231 | NS(=O)(=O)c1cccc(-c2noc(-c3nc(-c4ccc(Cl)cc4)cc(C(F)(F)F)n3)n2)c1 [Example 18, 3-{5-[4-(4-Chloro-phenyl)-6-trifluoromethyl-pyrimidin-2-yl]-[1,2,4}oxadiazol-3-yl]-benzenesulfonamide] |
| 206 | Nc1ccc(-c2cnn(-c3nc(-c4ccc(C(F)(F)F)cc4)cc(C(F)(F)F)n3)c2)cn1 [Example 19, 5-{1-[4-Trifluoromethyl-6-(4-trifluoromethyl-phenyl)-pyrimidin-2-yl]-1H-pyrazol-4-yl}-pyridin-2-ylamine] |
| 216 | Nc1ncc(-c2noc(-c3nc(-c4ccc(C(F)(F)F)cc4)cc(C(F)(F)F)n3)n2)cn1 [Example 20, 5-{5-[4-Trifluoromethyl-6-(4-trifluoromethyl-phenyl)-pyrimidin-2-yl]-[1,2,4]oxadiazol-3-yl}-pyrimidin-2-ylamine] |
| 205 | Nc1ccc(-c2nc(-c3nc(-c4ccc(C(F)(F)F)cc4)cc(C(F)(F)F)n3)no2)cn1 [Example 21, 5-{3-[4-Trifluoromethyl-6-(4-trifluoromethyl-phenyl)-pyrimidin-2-yl]-[1,2,4]oxadiazol-5-yl}-pyridin-2-ylamine] |
| 191 | Nc1ccc(-c2nc(-c3nc(-c4ccc(Cl)cc4)cc(C(F)(F)F)n3)no2)cn1 [Example 22, 5-{3-[4-(4-Chloro-phenyl)-6-trifluoromethyl-pyrimidin-2-yl]-[1,2,4]oxadiazol-5-yl}-pyridin-2-ylamine] |
| 258.5 | NS(=O)(=O)c1ccc(-c2nc(-c3nc(-c4ccc(C(F)(F)F)cc4)cc(C(F)(F)F)n3)no2)s1 [Example 23, 5-{3-[4-Trifluoromethyl-6-(4-trifluoromethyl-phenyl)-pyrimidin-2-yl]-[1,2,4]oxadiazol-5-yl}-thiophene-2-sulfonic acid amide] |
| 236.5 | NS(=O)(=O)c1ccc(-c2nc(-c3nc(-c4ccc(Cl)cc4)cc(C(F)(F)F)n3)no2)s1 [Example 24, 5-{3-[4-(4-Chloro-phenyl)-6-trifluoromethyl-pyrimidin-2-yl]-[1,2,4]oxadiazol-5-yl}-thiophene-2-sulfonic acid amide] |

| melting point [°C] | SMILES |
| --- | --- |
| 269 | FC(F)(F)c1cc(-c2ccc(Cl)cc2)nc(-n2cnc(-c3ccncc3)c2)n1 [Example 25, 4-(4-Chloro-phenyl)-2-(4-pyridin-4-yl-imidazol-1-yl)-6-trifluoromethyl-pyrimidine] |
| 171 | Nc1ccc(-c2cccc(-c3nc(-c4ccc(Cl)cc4)cc(C(F)(F)F)n3)c2)cn1 [Example 27, 5-{3-[4-(4-Chloro-phenyl)-6-trifluoromethyl-pyrimidin-2-yl]-phenyl}-pyridin-2-ylamine] |
| 187.5 | FC(F)(F)c1cc(-c2ccc(Cl)cc2)nc(-c2nc(-c3ccncc3)no2)n1 [Example 28, 4-(4-Chloro-phenyl)-2-(3-pyridin-4-yl-[1,2,4]oxadiazol-5-yl)-6-trifluoromethyl-pyrimidine] |
| 168.5 | FC(F)(F)c1cc(-c2ccc(Cl)cc2)nc(-c2nc(-c3cccnc3)no2)n1 [Example 29, 4-(4-Chloro-phenyl)-2-(3-pyridin-3-yl-[1,2,4]oxadiazol-5-yl)-6-trifluoromethyl-pyrimidine] |
| 227 | Nc1ccc(-c2cc(-c3nc(-c4ccc(Cl)cc4)cc(C(F)(F)F)n3)ccn2)cn1 [Example 30, 4-[4-(4-Chloro-phenyl)-6-trifluoromethyl-pyrimidin-2-yl]-[2,3′]bipyridinyl-6′-ylamine] |
| 226 | Nc1ccc(-c2cc(-c3nc(-c4ccc(C(F)(F)F)cc4)cc(C(F)(F)F)n3)ccn2)cn1 [Example 31, 4-[4-Trifluoromethyl-6-(4-trifluoromethyl-phenyl)-pyrimidin-2-yl]-[2,3′]bipyridinyl-6′-ylamine] |
| 253.5 | Nc1ccc(-c2cn(-c3nc(-c4ccc(C(F)(F)F)cc4)cc(C(F)F)n3)cn2)cn1 [Example 32, 5-{1-[4-Difluoromethyl-6-(4-trifluoromethyl-phenyl)-pyrimidin-2-yl]-1H-imidazol-4-yl}-pyridin-2-ylamine] |
| 219 | Nc1ccc(-c2noc(-c3nc(-c4ccc(C(F)(F)F)cc4)cc(C(F)F)n3)n2)cn1 [Example 36, 5-{5-[4-Difluoromethyl-6-(4-trifluoromethyl-phenyl)-pyrimidin-2-yl]-[1,2,4]oxadiazol-3-yl}-pyridin-2-ylamine] |
| 134 | FC(F)(F)c1ccc(-c2cc(C(F)(F)F)nc(-c3cccnc3)n2)cc1 [Example 37, 2-Pyridin-3-yl-4-trifluoromethyl-6-(4-trifluoromethyl-phenyl)-pyrimidine] |
| 132.5 | FC(F)c1cc(-c2ccc(C(F)(F)F)cc2)nc(-c2ccncc2)n1 [Example 38, 4-Difluoromethyl-2-pyridin-4-yl-6-(4-trifluoromethyl-phenyl)-pyrimidine] |
| 217.5 | NS(=O)(=O)c1cccc(-c2noc(-c3nc(-c4ccc(C(F)(F)F)cc4)cc(C(F)F)n3)n2)c1 [Example 40, 3-{5-[4-Difluoromethyl-6-(4-trifluoromethyl-phenyl)-pyrimidin-2-yl]-[1,2,4]oxadiazol-3-yl}-benzenesulfonamide] |
| 191 | Nc1ccc(-c2cccc(-c3nc(-c4ccc(C(F)(F)F)cc4)cc(C(F)F)n3)c2)cn1 [Example 41, 5-{3-[4-Difluoromethyl-6-(4-trifluoromethyl-phenyl)-pyrimidin-2-yl]-phenyl}-pyridin-2-ylamine] |
| 206 to 208 | Cc1cc(-c2ccc(Cl)cc2)nc(-n2cnc(-c3ccc(N)nc3)c2)n1 [Example 43, 5-{1-[4-(4-Chloro-phenyl)-6-methyl-pyrimidin-2-yl]-1H-imidazol-4-yl}-pyridin-2-ylamine] |
| 179 to 181 | Cc1cc(-c2ccc(Cl)cc2)nc(-n2cnc(-c3cccnc3)c2)n1 [Example 44, 4-(4-Chloro-phenyl)-6-methyl-2-(4-pyridin-3-yl-imidazol-1-yl)-pyrimidine] |
| 264 to 266 | Cc1cc(-c2ccc(Cl)cc2)nc(-n2cnc(-c3cnc(N)nc3)c2)n1 [Example 45, 5-{1-[4-(4-Chloro-phenyl)-6-methyl-pyrimidin-2-yl]-1H-imidazol-4-yl}-pyrimidin-2-ylamine] |
| 230 to 232 | Cc1cc(-c2ccc(C(F)(F)F)cc2)nc(-n2cnc(-c3ccc(N)nc3)c2)n1 [Example 46, 5-{1-[4-Methyl-6-(4-trifluoromethyl-phenyl)-pyrimidin-2-yl]-1H-imidazol-4-yl}-pyridin-2-ylamine] |
| 267 to 269 | Cc1cc(-c2ccc(C(F)(F)F)cc2)nc(-n2cnc(-c3cnc(N)nc3)c2)n1 [Example 47, 5-{1-[4-Methyl-6-(4-trifluoromethyl-phenyl)-pyrimidin-2-yl]-1H-imidazol-4-yl}-pyrimidin-2-ylamine] |
| 208 to 210 | Cc1cc(-c2ccc(C(F)(F)F)cc2)nc(-n2cnc(-c3cccnc3)c2)n1 [Example 48, 4-Methyl-2-(4-pyridin-3-yl-imidazol-1-yl)-6-(4-trifluoromethyl-phenyl)-pyrimidine] |
